In article PMC3433560 (Bioorganic & medicinal chemistry letters, 2012):
pEC50: −log10 of the molar value.

Biological target: KCNQ1 channels (Homo sapiens, UniProt P51787)
Assay: cell-based

Sequence of KCNQ1 channels (P51787 whole entry): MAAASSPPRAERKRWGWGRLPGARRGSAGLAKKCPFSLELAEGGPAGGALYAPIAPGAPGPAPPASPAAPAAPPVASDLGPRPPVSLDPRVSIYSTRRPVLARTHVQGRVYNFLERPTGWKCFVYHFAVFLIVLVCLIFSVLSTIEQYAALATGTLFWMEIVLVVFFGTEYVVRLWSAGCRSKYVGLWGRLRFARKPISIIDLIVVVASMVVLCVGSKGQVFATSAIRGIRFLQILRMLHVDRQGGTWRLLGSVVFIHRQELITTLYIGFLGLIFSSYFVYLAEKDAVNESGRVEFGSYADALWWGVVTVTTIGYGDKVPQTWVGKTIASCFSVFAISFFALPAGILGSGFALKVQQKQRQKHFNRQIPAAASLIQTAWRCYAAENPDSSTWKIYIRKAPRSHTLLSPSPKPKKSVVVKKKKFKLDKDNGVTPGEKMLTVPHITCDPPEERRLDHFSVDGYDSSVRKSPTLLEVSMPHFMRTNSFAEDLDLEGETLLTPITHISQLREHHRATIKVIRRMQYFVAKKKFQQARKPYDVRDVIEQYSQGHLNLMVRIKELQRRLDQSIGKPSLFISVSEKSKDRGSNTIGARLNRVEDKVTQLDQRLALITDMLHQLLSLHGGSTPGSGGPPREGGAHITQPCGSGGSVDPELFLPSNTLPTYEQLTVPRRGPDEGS

## COc1ccc(-c2csc(NC(=O)C3CCCCN3S(=O)(=O)c3ccccc3)n2)cc1 (stereo not shown) [compound 5]
  pEC50: 6.18
